Data reported in patent publication US12723063B2, “GIPR-agonist compounds” (Eli Lilly and Company, priority 2019, dated 2026).
*1 amine or outer side, *2 acyl side, *3 side chain or, on linkers, in order; H or OH if unused. Where a SMILES comes first, the peptide text is derived from it. Side-chain parts run from the residue outwards. [ ]: non-standard residue; d: D form. The star is where a group is joined. C20 diacid = O=C(O)CCCCCCCCCCCCCCCCCCC(=O)*; αMePhe(2-F) = C[C@](N)(Cc1ccccc1F)C(=O)O; γGlu = O=C(O)[C@H](CCC(=O)[*:2])N[*:1]; 4Pal = N[C@@H](Cc1ccncc1)C(=O)O; αMeL = CC(C)C[C@](C)(N)C(=O)O; Orn = NCCC[C@H](N)C(=O)O; AEEA = NCCOCCOCC(=O)O; Aib = CC(C)(N)C(=O)O

Columns and labels:
human GIPR = biological target: T1, human GIPR (Homo sapiens, UniProt P48546); assay: [125I]-GIP binding, SPA with WGA beads, 0.1% bacitracin; settings: geometric mean, read-out: hGIPR Ki
T1 construct: expressed in transfected cells; crude membranes
T1 sequence (P48546 22-466): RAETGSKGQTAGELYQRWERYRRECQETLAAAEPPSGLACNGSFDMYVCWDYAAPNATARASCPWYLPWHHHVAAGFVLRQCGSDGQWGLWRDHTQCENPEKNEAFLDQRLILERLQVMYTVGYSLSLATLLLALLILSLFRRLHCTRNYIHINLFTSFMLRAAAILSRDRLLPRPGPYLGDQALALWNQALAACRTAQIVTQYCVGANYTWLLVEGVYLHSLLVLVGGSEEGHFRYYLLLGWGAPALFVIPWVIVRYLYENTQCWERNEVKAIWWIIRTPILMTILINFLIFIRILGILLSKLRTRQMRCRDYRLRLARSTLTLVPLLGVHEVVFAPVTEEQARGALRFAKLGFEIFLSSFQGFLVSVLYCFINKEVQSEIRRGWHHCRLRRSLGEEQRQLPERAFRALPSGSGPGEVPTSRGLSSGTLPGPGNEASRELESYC
Method in brief: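 Ki values are geometric means (SEM, n independent days), derived from four-parameter nonlinear regression of IC50. Membranes came from hGIPR-expressing CHO cells.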

[1] = biological target: T2, human glucose-dependent insulinotropic peptide receptor (GIPR) (Homo sapiens, UniProt P48546); assay: cAMP functional assay (HTRF) in HEK293 cells in presence of 0.1% casein; format: cell-based; settings: HEK293 cells expressing human GIPR, geometric mean, read-out: hGIPR cAMP Rel EC50 nM (SEM, n)
T2 construct: expressed in transfected cells; host or cells: HEK293
T2 sequence (P48546 22-466): T1 sequence (P48546 22-466)

SMILES | Ki (human GIPR) | EC50 [1]
CC[C@H](C)[C@H](NC(=O)[C@H](CCCN)NC(=O)[C@H](CC(=O)O)NC(=O)[C@H](CC(C)C)NC(=O)[C@](C)(CC(C)C)NC(=O)[C@@H](NC(=O)[C@H](CO)NC(=O)[C@H](Cc1ccc(O)cc1)NC(=O)[C@H](CC(=O)O)NC(=O)[C@H](CO)NC(=O)[C@@H](NC(=O)[C@H](Cc1ccccc1)NC(=O)[C@@H](NC(=O)CNC(=O)[C@H](CCC(=O)O)NC(=O)C(C)(C)NC(=O)[C@@H](N)Cc1ccc(O)cc1)[C@@H](C)O)[C@@H](C)CC)[C@@H](C)CC)C(=O)N[C@@H](CCCNC(=N)N)C(=O)N[C@@H](CCC(N)=O)C(=O)NC(C)(C)C(=O)N[C@@H](CC(=O)O)C(=O)N[C@@H](Cc1ccccc1)C(=O)N[C@H](C(=O)N[C@@H](CCC(=O)O)C(=O)N[C@@H](Cc1ccc(O)cc1)C(=O)N[C@@H](CCCCNC(=O)COCCOCCNC(=O)COCCOCCNC(=O)CC[C@H](NC(=O)CCCCCCCCCCCCCCCCCCC(=O)O)C(=O)O)C(=O)N[C@@H](CC(C)C)C(=O)N[C@@H](CCC(=O)O)C(=O)NCC(=O)NCC(=O)N1CCC[C@H]1C(=O)N[C@@H](CO)C(=O)N[C@@H](CO)C(=O)NCC(=O)N[C@@H](C)C(=O)N1CCC[C@H]1C(=O)N1CCC[C@H]1C(=O)N1CCC[C@H]1C(=O)N[C@@H](CO)C(N)=O)C(C)C [Example 116] (H-Y[Aib]EGTFISDYSI[αMeL]LD[Orn]IRQ[Aib]DFVEYK([AEEA-AEEA-γGlu-C20 diacid])LEGGPSSGAPPPS-NH2) | 0.166 nM | 0.028 nM
CC[C@H](C)[C@H](NC(=O)[C@H](CO)NC(=O)[C@H](Cc1ccc(O)cc1)NC(=O)[C@H](CC(=O)O)NC(=O)[C@H](CO)NC(=O)[C@@H](NC(=O)[C@](C)(Cc1ccccc1F)NC(=O)[C@@H](NC(=O)CNC(=O)[C@H](CCC(=O)O)NC(=O)C(C)(C)NC(=O)[C@@H](N)Cc1ccc(O)cc1)[C@@H](C)O)[C@@H](C)CC)C(=O)N[C@@H](C)C(=O)N[C@@H](CC(C)C)C(=O)N[C@@H](CC(=O)O)C(=O)N[C@@H](CCCCN)C(=O)N[C@H](C(=O)N[C@@H](Cc1c[nH]cn1)C(=O)N[C@@H](CCC(N)=O)C(=O)NC(C)(C)C(=O)N[C@@H](CC(=O)O)C(=O)N[C@@H](Cc1ccccc1)C(=O)N[C@H](C(=O)N[C@@H](CCC(=O)O)C(=O)N[C@@H](Cc1ccncc1)C(=O)N[C@@H](CCCCNC(=O)COCCOCCNC(=O)COCCOCCNC(=O)CC[C@H](NC(=O)CCCCCCCCCCCCCCCCCCC(=O)O)C(=O)O)C(=O)N[C@@H](CC(C)C)C(=O)N[C@@H](CCC(=O)O)C(=O)NCC(=O)NCC(=O)N1CCC[C@H]1C(=O)N[C@@H](CO)C(=O)N[C@@H](CO)C(=O)NCC(=O)N[C@@H](C)C(=O)N1CCC[C@H]1C(=O)N1CCC[C@H]1C(=O)N1CCC[C@H]1C(=O)N[C@@H](CO)C(N)=O)C(C)C)[C@@H](C)CC [Example 112] (H-Y[Aib]EGT[αMePhe(2-F)]ISDYSIALDKIHQ[Aib]DFVE[4Pal]K([AEEA-AEEA-γGlu-C20 diacid])LEGGPSSGAPPPS-NH2) | 0.0742 nM | 0.0041 nM
CC[C@H](C)[C@H](NC(=O)[C@H](CO)NC(=O)[C@H](Cc1ccc(O)cc1)NC(=O)[C@H](CC(=O)O)NC(=O)[C@H](CO)NC(=O)[C@@H](NC(=O)[C@](C)(Cc1ccccc1F)NC(=O)[C@@H](NC(=O)CNC(=O)[C@H](CCC(=O)O)NC(=O)C(C)(C)NC(=O)[C@@H](N)Cc1ccc(O)cc1)[C@@H](C)O)[C@@H](C)CC)C(=O)N[C@@H](C)C(=O)N[C@@H](CC(C)C)C(=O)N[C@@H](CC(=O)O)C(=O)N[C@@H](CCCCN)C(=O)N[C@H](C(=O)N[C@@H](Cc1c[nH]cn1)C(=O)N[C@@H](CCC(N)=O)C(=O)NC(C)(C)C(=O)N[C@@H](CCC(=O)O)C(=O)N[C@@H](Cc1ccccc1)C(=O)N[C@H](C(=O)N[C@@H](CC(N)=O)C(=O)N[C@@H](Cc1ccc(O)cc1)C(=O)N[C@@H](CCCCNC(=O)COCCOCCNC(=O)COCCOCCNC(=O)CC[C@H](NC(=O)CCCCCCCCCCCCCCCCCCC(=O)O)C(=O)O)C(=O)N[C@@H](CC(C)C)C(=O)N[C@@H](CCC(=O)O)C(=O)NCC(=O)NCC(=O)N1CCC[C@H]1C(=O)N[C@@H](CO)C(=O)N[C@@H](CO)C(=O)NCC(=O)N[C@@H](C)C(=O)N1CCC[C@H]1C(=O)N1CCC[C@H]1C(=O)N1CCC[C@H]1C(=O)N[C@@H](CO)C(N)=O)C(C)C)[C@@H](C)CC [Example 95] (H-Y[Aib]EGT[αMePhe(2-F)]ISDYSIALDKIHQ[Aib]EFVNYK([AEEA-AEEA-γGlu-C20 diacid])LEGGPSSGAPPPS-NH2) | 0.0255 nM | 0.0272 nM
